Assay results as given in US8299048B2, “Hexahydrocyclopentyl[f]indazole sulfonamides and derivatives thereof as selective glucocorticoid receptor modulators” (Merck Sharp & Dohme Corp., priority 2008, dated 2012).

Legend:
[1] = target: T1, human GR (Homo sapiens, UniProt P04150); assay: Trans-Activation Modulation of Glucocorticoid Receptor (GRAMMER), MMTV-LUC reporter, agonist mode; format: cell-based; parameters: endogenous in cells; settings: for Emax: A549, A549 cells, maximum activity, read-out: Transactivation A549 Cells GRAMMER Emax; for EC50: A549 cells, inflection point, read-out: Transactivation A549 Cells GRAMMER IP
T1 sequence (P04150 1-777): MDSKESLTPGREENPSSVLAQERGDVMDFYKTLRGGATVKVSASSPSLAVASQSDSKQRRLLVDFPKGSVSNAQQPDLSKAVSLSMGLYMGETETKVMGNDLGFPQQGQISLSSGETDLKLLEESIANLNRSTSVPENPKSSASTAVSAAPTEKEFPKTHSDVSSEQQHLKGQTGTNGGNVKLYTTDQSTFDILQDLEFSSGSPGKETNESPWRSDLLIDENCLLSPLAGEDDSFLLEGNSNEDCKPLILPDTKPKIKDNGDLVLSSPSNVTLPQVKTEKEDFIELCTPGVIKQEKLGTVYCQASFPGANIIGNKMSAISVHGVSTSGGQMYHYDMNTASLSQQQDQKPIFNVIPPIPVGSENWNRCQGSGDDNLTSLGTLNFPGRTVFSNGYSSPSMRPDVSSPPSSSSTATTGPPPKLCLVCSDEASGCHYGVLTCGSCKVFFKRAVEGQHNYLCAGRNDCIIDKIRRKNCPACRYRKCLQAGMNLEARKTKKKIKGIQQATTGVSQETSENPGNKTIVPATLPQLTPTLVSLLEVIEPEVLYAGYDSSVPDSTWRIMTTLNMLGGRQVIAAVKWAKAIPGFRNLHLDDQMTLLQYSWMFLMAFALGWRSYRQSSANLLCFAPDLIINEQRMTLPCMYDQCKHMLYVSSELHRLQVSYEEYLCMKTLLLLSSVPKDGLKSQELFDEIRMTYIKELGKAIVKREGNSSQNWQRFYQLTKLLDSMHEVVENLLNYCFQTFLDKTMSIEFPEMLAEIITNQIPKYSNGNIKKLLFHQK
How it was run: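 Readout is luciferase from a modified MMTV LTR promoter after 24 h compound exposure alongside 10 nM dexamethasone (100% activity reference), DMSO ≤1%.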

[2] = target: T1, human GR; assay: Transrepression Assay (GITAR), TNFα-β-lactamase reporter in U937 cells; format: cell-based; parameters: U937 cells contain an endogenous glucocorticoid receptor (GR); endogenous in cells; host or cells: U937 cells stably transfected with the TNF-alpha promoter/beta-lactamase reporter; settings: for GITAR > GRAMM % SEP: GITAR Emax minus GRAMMER Emax; for EC50: U937 cells, inflection point, read-out: Transrepression U937 Cells GITAR IP
How it was run: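 Read-out: CCF2-AM β-lactamase signal after 70–90 min loading at room temperature. U937 TNF-α-promoter reporter cells (endogenous GR), compound 30–45 min at 37 °C, then PMA 5 ng/ml + LPS 100 ng/ml final, ~18 hr. Normalised to 100 nM dexamethasone = 100%.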

[3] = U-937, U937 cells, maximum activity, read-out: Transrepression U937 Cells GITAR Emax
[4] = U-937, activity repressed by 100 nM dexamethasone alone set as 100%, read-out: maximal activity in the transrepression (GITAR) assay

Structure (SMILES)	Emax [1] [%]	EC50 [1] [nM]	GITAR > GRAMM % SEP [2] [%]	EC50 [2] [nM]	Emax [2, 3] [%]	Emax [2, 4] [%]
C[C@]12Cc3cnn(-c4ccc(F)cc4)c3C=C1CC[C@@H]2CN(CCCc1ccccc1)S(=O)(=O)CC(F)(F)F [Example 193, 2,2,2-trifluoro-N-{[(4αR,5S)-1-(4-fluorophenyl)-4α-methyl-1,4,4α,5,6,7-hexahydrocyclopenta[f]indazol-5-yl]methyl}-N-(3-phenylpropyl)ethanesulfonamide]	55.4	303	18.6	170	74	> 5
C[C@]12Cc3cnn(-c4ccc(F)cc4)c3C=C1CC[C@@H]2CN(CC#N)S(=O)(=O)c1ccc(-c2ccccc2)cc1 [Example 42, N-(cyanomethyl)-N-{[(4αR,5S)-1-(4-fluorophenyl)-4α-methyl-1,4,4α,5,6,7-hexahydrocyclopenta[f]indazol-5-yl]methyl}biphenyl-4-sulfonamide]	4.2	228	15.1	391	19.2	> 5
C[C@H](O)CN(C[C@H]1CCC2=Cc3c(cnn3-c3ccc(F)cc3)C[C@@]21C)S(=O)(=O)Cc1ccccc1C(=O)O [Example 183, 2-[({{[(4αR,5S)-1-(4-fluorophenyl)-4α-methyl-1,4,4α,5,6,7-hexahydrocyclopenta[f]indazol-5-yl]methyl}[(2S)-2-hydroxypropyl]amino}sulfonyl)methyl]benzoic acid]	15	4500	8.2	3310	23.2	> 5
C[C@]12Cc3cnn(-c4ccc(F)cc4)c3C=C1CC[C@@H]2CN(CC1CC1)S(=O)(=O)Cc1ccccc1 [Example 21, N-(cyclopropylmethyl)-N-{[(4αR,5S)-1-(4-fluorophenyl)-4α-methyl-1,4,4α,5,6,7-hexahydrocyclopenta[f]indazol-5-yl]methyl}-1-phenylmethanesulfonamide]	33.5	519		365	58.7	> 5
C[C@]12Cc3cnn(-c4ccc(F)cc4)c3C=C1CC[C@@H]2CN(CCO)S(=O)(=O)c1ccccc1F [Example 17, 2-fluoro-N-{[(4αR,5S)-1-(4-fluorophenyl)-4α-methyl-1,4,4α,5,6,7-hexahydrocyclopenta[f]indazol-5-yl]methyl}-N-(2-hydroxyethyl)benzenesulfonamide]	37.3	220		347	82.1	> 5
C[C@]12Cc3cnn(-c4ccc(F)cc4)c3C=C1CC[C@@H]2CN(CCO)S(=O)(=O)c1cc(Cl)c(Cl)s1 [Example 58, 4,5-dichloro-N-{[(4αR,5S)-1-(4-fluorophenyl)-4α-methyl-1,4,4α,5,6,7-hexahydrocyclopenta[f]indazol-5-yl]methyl}-N-(2-hydroxyethyl)thiophene-2-sulfonamide]	3.1	1080	25.7	737	28.8	> 5
C[C@]12Cc3cnn(-c4ccc(F)cc4)c3C=C1CC[C@@H]2CN(CCO)S(=O)(=O)c1cccc(Cl)c1Cl [Example 61, 2,3-dichloro-N-{[(4αR,5S)-1-(4-fluorophenyl)-4α-methyl-1,4,4α,5,6,7-hexahydrocyclopenta[f]indazol-5-yl]methyl}-N-(2-hydroxyethyl)benezenesulfonamide]	5.8	417	25.5	1550	31.3	> 5
Cc1cc(S(=O)(=O)N(CC#N)C[C@H]2CCC3=Cc4c(cnn4-c4ccc(F)cc4)C[C@@]32C)c(C)cc1Cl [Example 29, 4-chloro-N-(cyanomethyl)-N-{[(4αR,5S)-1-(4-fluorophenyl)-4α-methyl-1,4,4α,5,6,7-hexahydrocyclopenta[f]indazol-5-yl]methyl}-2,5-dimethylbenzenesulfonamide]	4.7	1710	26.2	838	30.9	> 5
CCS(=O)(=O)N(CC1CCCO1)C[C@H]1CCC2=Cc3c(cnn3-c3ccc(F)cc3)C[C@@]21C (stereo partly drawn) [Example 174, N-{[(4αR,5S)-1-(4-fluorophenyl)-4α-methyl-1,4,4α,5,6,7-hexahydrocyclopenta[f]indazol-5-yl]methyl}-N-(tetrahydrofuran-2-ylmethyl)ethanesulfonamide]	81.1	527	4.2	423	85.3	> 5

Other lines, results leading:

Emax [1] [%]	EC50 [1] [nM]	GITAR > GRAMM % SEP [2] [%]	EC50 [2] [nM]	Emax [2, 3] [%]	Emax [2, 4] [%]	Structure (SMILES)
36	470	35.8	1100	71.8	> 5	C[C@]12Cc3cnn(-c4ccc(F)cc4)c3C=C1CC[C@@H]2CN(CC#N)S(=O)(=O)c1ccccc1F [Example 43, N-(cyanomethyl)-2-fluoro-N-{[(4αR,5S)-1-(4-fluorophenyl)-4α-methyl-1,4,4α,5,6,7-hexahydrocyclopenta[f]indazol-5-yl]methyl}benzenesulfonamide]
37	748	8.9	1780	45.9	> 5	COC(=O)c1sccc1S(=O)(=O)N(CC#N)C[C@H]1CCC2=Cc3c(cnn3-c3ccc(F)cc3)C[C@@]21C [Example 34, methyl 3-[((cyanomethyl){[(4αR,5S)-1-(4-fluorophenyl)-4α-methyl-1,4,4α,5,6,7-hexahydrocyclopenta[f]indazol-5-yl]methyl}amino)sulfonyl]thiophene-2-carboxylate]
27.1	338	10.1	441	37.2	> 5	C[C@]12Cc3cnn(-c4ccc(F)cc4)c3C=C1CC[C@@H]2CN(CC1CCCO1)S(=O)(=O)c1ccc(C(N)=O)cc1 (stereo partly drawn) [Example 191, 4-{[{[(4αR,5S)-1-(4-fluorophenyl)-4α-methyl-1,4,4α,5,6,7-hexahydrocyclopenta[f]indazol-5-yl]methyl}(tetrahydrofuran-2-ylmethyl)amino]sulfonyl}benzamide]
76.4	453	13.0	222	89.4	> 5	C[C@]12Cc3cnn(-c4ccc(F)cc4)c3C=C1CC[C@@H]2CN(CC#N)S(=O)(=O)c1ccc(F)c(F)c1 [Example 25, N-(cyanomethyl)-3,4-difluoro-N-{[(4αR,5S)-1-(4-fluorophenyl)-4α-methyl-1,4,4α,5,6,7-hexahydrocyclopenta[f]indazol-5-yl]methyl}benzenesulfonamide]
41.3	437	39.6	538	80.9	> 5	C[C@]12Cc3cnn(-c4ccc(F)cc4)c3C=C1CC[C@@H]2CN(CCO)S(=O)(=O)c1ccc(F)c(F)c1 [Example 59]
5.8	939	10.2	25	16	> 5	C[C@]12Cc3cnn(-c4ccc(F)cc4)c3C=C1CC[C@@H]2CN(CC#N)S(=O)(=O)c1cccc(Cl)c1Cl [Example 26, 2,3-dichloro-N-(cyanomethyl)-N-{[(4αR,5S)-1-(4-fluorophenyl)-4α-methyl-1,4,4α,5,6,7-hexahydrocyclopenta[f]indazol-5-yl]methyl}benzenesulfonamide]
